From US12558366B2, “Bacterial DNA gyrase inhibitors and methods of use thereof” (THE FLORIDA INTERNATIONAL UNIVERSITY BOARD OF TRUSTEES, priority 2021, dated 2026)
Converted amounts (≈) assume the structure as drawn. “Also recorded” adds a separate entry of the source. Like-named read-outs stand apart in the source and are kept apart here.

Experiments:
[1] = test system: E. coli (ATCC 25922); assay: Minimum inhibitory concentration, E. coli; format: cell-based; conditions: Escherichia coli, ATCC25922, read-out: Minimum Inhibitory Concentration E. coli
Experimental: (§1) Antibacterial minimum inhibitory concentrations (MICs) were obtained from three independent experiments using broth microdilution methods in 96-well plates according to Clinical and Laboratory Standards Institute guidelines. Cells were culture from singles colonies in MHIIB medium for 24 h at 37° C. in agitation (200 RPM). The cultures were then diluted using the same media to reach an OD600 of 0.1. Then, 50 μL of the diluted cultures were added to the plates holding 50 μL of serially diluted compounds in MHIIB. The plates were incubated at 37° C. for 20 h. The starting inoculum was fixated to 10^5 colony-forming units per ml.

[2] = test system: E. coli imp; assay: microbe, parasite or virus in culture; format: cell-based; conditions: Escherichia coli, read-out: Minimum Inhibitory Concentration E. coli imp
Experimental: as §1

[3] = test system: B. subtilis (ATCC 6633); assay: Minimum inhibitory concentration, B. subtilis; format: cell-based; conditions: for MIC: Bacillus subtilis, ATCC6633, Tables 3a-3c
Experimental: as §1

[4] = test system: Mtb; assay: Mtb inhibition (antibacterial activity); format: cell-based, Mycobacterium tuberculosis; design: % Mtb inhibition: concentration or dose not given beside the values; conditions: for % Mtb inhibition: Table 5
[5] = test system: J774; assay: Cytotoxicity in J774 cells; format: cell-based; conditions: for cytotoxicity: J774, 200 μM; for IC50: highest concentration 200 μM
[6] = test system: HepG2; assay: Cytotoxicity in HepG2 cells; format: cell-based; conditions: for cytotoxicity: HepG2, 200 μM; for IC50: highest concentration 200 μM
[7] = target: T1, E. coli DNA gyrase (Escherichia coli, UniProt P0AES4+P0AES6); assay: E. coli DNA gyrase inhibition (agarose gel-based and/or SDFQ-based, not specified per value); format: biochemical
T1 sequence (P0AES4 whole entry, one chain of several): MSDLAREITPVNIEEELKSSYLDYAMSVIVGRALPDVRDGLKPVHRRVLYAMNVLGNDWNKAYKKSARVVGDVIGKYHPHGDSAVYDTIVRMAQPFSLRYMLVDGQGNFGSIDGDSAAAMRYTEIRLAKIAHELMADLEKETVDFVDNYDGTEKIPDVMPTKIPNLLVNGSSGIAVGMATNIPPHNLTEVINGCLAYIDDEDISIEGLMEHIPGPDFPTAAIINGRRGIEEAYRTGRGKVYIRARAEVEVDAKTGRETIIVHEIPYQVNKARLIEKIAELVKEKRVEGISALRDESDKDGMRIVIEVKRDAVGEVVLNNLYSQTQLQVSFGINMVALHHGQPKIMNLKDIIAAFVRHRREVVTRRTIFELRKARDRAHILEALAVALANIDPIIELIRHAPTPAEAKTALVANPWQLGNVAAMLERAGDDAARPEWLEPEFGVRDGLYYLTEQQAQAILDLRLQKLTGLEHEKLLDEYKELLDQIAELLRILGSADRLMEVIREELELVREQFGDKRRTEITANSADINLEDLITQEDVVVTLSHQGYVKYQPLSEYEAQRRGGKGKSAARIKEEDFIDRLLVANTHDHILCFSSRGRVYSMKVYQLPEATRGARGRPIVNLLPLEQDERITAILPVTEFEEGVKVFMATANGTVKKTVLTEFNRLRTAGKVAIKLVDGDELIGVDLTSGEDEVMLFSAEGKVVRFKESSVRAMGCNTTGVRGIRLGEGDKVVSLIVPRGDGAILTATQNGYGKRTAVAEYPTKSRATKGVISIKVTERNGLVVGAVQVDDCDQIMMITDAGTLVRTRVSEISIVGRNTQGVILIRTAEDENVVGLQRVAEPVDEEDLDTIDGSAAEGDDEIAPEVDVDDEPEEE

[8] = target: Mtb DNA gyrase (Mycobacterium tuberculosis, UniProt P9WG45+P9WG47); assay: Mtb DNA gyrase inhibition; format: biochemical
Sequence of Mtb DNA gyrase (P9WG45 whole entry): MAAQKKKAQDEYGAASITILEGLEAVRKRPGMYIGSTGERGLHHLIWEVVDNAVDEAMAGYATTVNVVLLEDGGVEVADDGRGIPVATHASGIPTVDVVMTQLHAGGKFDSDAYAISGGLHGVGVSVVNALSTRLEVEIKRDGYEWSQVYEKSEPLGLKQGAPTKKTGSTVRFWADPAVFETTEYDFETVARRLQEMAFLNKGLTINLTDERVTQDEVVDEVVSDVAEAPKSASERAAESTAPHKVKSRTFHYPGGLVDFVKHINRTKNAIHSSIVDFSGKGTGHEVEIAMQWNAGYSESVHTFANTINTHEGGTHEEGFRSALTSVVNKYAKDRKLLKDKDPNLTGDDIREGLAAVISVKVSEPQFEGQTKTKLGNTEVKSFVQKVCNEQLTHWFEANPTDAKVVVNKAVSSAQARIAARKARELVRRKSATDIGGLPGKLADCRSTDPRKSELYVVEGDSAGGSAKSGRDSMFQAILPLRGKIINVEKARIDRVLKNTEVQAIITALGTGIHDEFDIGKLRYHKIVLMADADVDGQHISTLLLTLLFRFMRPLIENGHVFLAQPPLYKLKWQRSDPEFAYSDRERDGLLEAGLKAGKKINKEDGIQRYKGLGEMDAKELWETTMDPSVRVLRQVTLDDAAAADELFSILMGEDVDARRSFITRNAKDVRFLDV
Sequence of Mtb DNA gyrase (P9WG47 whole entry): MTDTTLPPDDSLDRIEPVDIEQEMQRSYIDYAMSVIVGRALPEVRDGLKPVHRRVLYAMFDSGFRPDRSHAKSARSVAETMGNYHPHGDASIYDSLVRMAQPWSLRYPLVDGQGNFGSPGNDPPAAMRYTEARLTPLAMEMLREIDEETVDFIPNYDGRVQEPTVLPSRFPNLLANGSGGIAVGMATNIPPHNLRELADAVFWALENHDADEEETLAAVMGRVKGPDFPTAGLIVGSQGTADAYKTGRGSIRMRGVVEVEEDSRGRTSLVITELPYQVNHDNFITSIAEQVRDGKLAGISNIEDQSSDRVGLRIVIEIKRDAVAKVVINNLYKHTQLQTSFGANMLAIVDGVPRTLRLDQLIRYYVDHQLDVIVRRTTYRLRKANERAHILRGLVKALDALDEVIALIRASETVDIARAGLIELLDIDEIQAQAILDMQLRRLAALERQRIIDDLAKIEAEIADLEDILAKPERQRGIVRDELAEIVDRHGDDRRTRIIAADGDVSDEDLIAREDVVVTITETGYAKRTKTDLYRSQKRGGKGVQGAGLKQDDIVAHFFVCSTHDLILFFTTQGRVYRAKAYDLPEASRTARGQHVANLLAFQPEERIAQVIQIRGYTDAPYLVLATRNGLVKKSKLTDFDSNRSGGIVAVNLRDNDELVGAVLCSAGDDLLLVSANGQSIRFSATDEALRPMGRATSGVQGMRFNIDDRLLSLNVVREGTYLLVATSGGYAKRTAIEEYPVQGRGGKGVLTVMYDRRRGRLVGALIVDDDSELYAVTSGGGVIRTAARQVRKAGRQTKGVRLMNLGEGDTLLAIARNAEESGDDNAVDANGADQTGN

[9] = test system: S. aureus (ATCC 14775); assay: Minimum inhibitory concentration, S. aureus; format: cell-based; conditions: Staphylococcus aureus
Experimental: as §1

[10] = test system: MRSA (ATCC BAA44); assay: microbe, parasite or virus in culture; format: cell-based, S. aureus; conditions: Staphylococcus aureus
Experimental: as §1

[11] = target: T1, E. coli DNA gyrase; assay: DNA gyrase mediated DNA cleavage assay; format: biochemical; conditions: plasmid pBR322
Experimental: 250 ng of supercoiled pBR322 plasmid were incubated with 50 nM of E. coli DNA gyrase in reactions containing 35 mM Tris-HCl, 24 mM KCl, 4 mM MgCl2, 2 mM DTT, 0.1 mg/mL BSA, 6.5% glycerol, and 1.75 mM ATP, in presence of 200 μM of compounds, at 37° C. for 15 min. Then, 0.2% (w/v) of SDS and 0.1 mg/mL proteinase K were added, and samples were incubated at 37° C. for 1 h. […] Samples were examined by electrophoresis in 1% w/v agarose gel containing 0.5 μg/mL ethidium bromide and photographed under UV light.

[12] = target: T1, E. coli DNA gyrase; assay: Agarose gel-based DNA gyrase inhibition assays; format: biochemical; conditions: 200 μM of compounds
Experimental: 100 ng of DNA gyrase was used to supercoil the rx pAB1 in the presence of different concentrations of a gyrase inhibitor. […] Samples were analyzed by electrophoresis in 1% w/v agarose gels followed by ethidium bromide staining and photographed under UV light.

[13] = target: T1, E. coli DNA gyrase; assay: E. coli DNA gyrase ATPase assays; format: biochemical
Experimental: E. coli DNA gyrase ATPase assays were performed in 60 μl, of 1×gyrase ATPase buffer (10 mM Tris.HCl (pH 7.5), 0.2 mM EDTA, 1 mM magnesium chloride, 1 mM DTT, and 2% (w/v) glycerol) containing 50 nM E. coli DNA gyrase, 200 ng rx pAB1, 0.8 mM Phosphoenol pyruvate, 1.2 units of Pyruvate kinase, 1.7 units of lactate dehydrogenase, and 0.4 mM of NADH at 37° C. After the reaction mixtures are incubated on ice for 5 minutes, 2 mM of ATP is added to initiate the reaction. Absorbance at OD340 nm is monitored for up to 30 minutes at 37° C. in a spectrophotometer.

[14] = read-out: Minimum Inhibitory Concentration S. aureus MRSA
[15] = ATCC14775, Tables 3a-3c, read-out: Minimum Inhibitory Concentration S. aureus
[16] = Table 2 values, read-out: IC50 ( ≤15 μM) IC50

Cc1c(CCC(=O)O)c(=O)oc2c(C)c3occ(-c4ccc(-c5ccccc5)cc4)c3cc12 [Compound 119]
MIC [1]: > 200 µM
MIC [2]: > 200 µM
MIC [3]: > 200 µM
activity against Mtb [4]: most active for Mtb
cytotoxicity [5]: no cytotoxicity evident
cytotoxicity [6]: no cytotoxicity evident

Cc1c(C)c2cc3c(-c4ccc(Br)cc4)coc3c(C)c2oc1=O [Compound 118]
inhibition of E. coli DNA gyrase activities [7]: All psoralen derivatives inhibited E. coli and Mtb DNA gyrase activities except compounds 118 and 122
inhibition of Mtb DNA gyrase activities [8]: All psoralen derivatives inhibited E. coli and Mtb DNA gyrase activities except compounds 118 and 122
MIC ([9]; ATCC14775, read-out: Minimum Inhibitory Concentration S. aureus): 200 µM (≈ 76.6 µg/mL)
MIC [10, 14]: 200 µM (≈ 76.6 µg/mL)
% Mtb inhibition [4]: 21.8%

CC(OC(=O)c1cc(O)c2ccccc2c1O)C(=O)Nc1ccc(C(N)=O)cc1 (centres unmarked) [Compound 40, 1-[(4-carbamoylphenyl)carbamoyl]ethyl 1,4-dihydroxynaphthalene-2-carboxylate]
DNA gyrase-mediated double stranded DNA breaks / DNA nicking [11]: causes DNA gyrase-mediated double stranded DNA breaks and DNA nicking; also recorded: causes gyrase-mediated DNA double-stranded breaks and single-stranded nicks; also recorded: bacterial DNA gyrase poison
MIC [1]: > 200 µM
MIC [2]: > 200 µM
MIC [9, 15]: > 200 µM
MIC [10, 14]: > 200 µM
anti Bacillus subtilis activities at [3]: 39 µg/mL

Cc1c(CCC(=O)O)c(=O)oc2cc3occ(-c4ccc(Br)cc4)c3cc12 [Compound 46]
inhibition of E. coli DNA gyrase activities [12]: completely inhibited
IC50 [7]: 11.4 µM
inhibition of E. coli DNA gyrase activities [7]: potent bacterial DNA gyrase inhibitors
IC50 [7, 16]: 11.2 µM
IC50 ([8]; Table 5): 75 µM
MIC [1]: > 200 µM
MIC [2]: 6.25 µM (≈ 2.67 µg/mL)
MIC ([9]; ATCC14775, Table 5, read-out: MIC (μM) SA): > 200 µM
MIC [9, 15]: > 200 µM
MIC ([10]; read-out: MIC (μM) MRSA): > 200 µM
MIC [10, 14]: > 200 µM
MIC [3]: 6.25 µM (≈ 2.67 µg/mL)
activity against Mtb [4]: most active for Mtb
inhibition at 20 µM ([4]; Mycobacterium tuberculosis, read-out: % inhibition (20 μM), 20 μM, Table 6): 82.3%
cytotoxicity [5]: no cytotoxicity evident
IC50 ([5]; Mus musculus, J774): > 200 µM
cytotoxicity [6]: no cytotoxicity evident
IC50 ([6]; Homo sapiens, HepG2): > 200 µM

Cc1coc2cc3oc(=O)c(CCC(=O)O)c(C)c3cc12 [Compound 122]
inhibition of E. coli DNA gyrase activities [7]: All psoralen derivatives inhibited E. coli and Mtb DNA gyrase activities except compounds 118 and 122
inhibition of Mtb DNA gyrase activities [8]: All psoralen derivatives inhibited E. coli and Mtb DNA gyrase activities except compounds 118 and 122
MIC [9, 15]: 200 µM (≈ 57.3 µg/mL)
MIC [10, 14]: 200 µM (≈ 57.3 µg/mL)
% Mtb inhibition [4]: 15.7%

Cc1c(CCC(=O)O)c(=O)oc2c(C)c3occ(-c4ccc(Br)cc4)c3cc12 [Compound 48]
IC50 [7, 16]: 4.28 µM
mode of inhibition (ATP competitive) [13]: ATP competitive inhibitor
MIC [1]: > 200 µM
MIC [2]: > 200 µM
MIC [3]: > 200 µM
% Mtb inhibition [4]: 38.6%

O=C1C=C(NCCc2cc(Br)c(O)c(Br)c2)C(=O)c2ncccc21 [Compound 232, 7-((2-(3,5-Dibromo-4-hydroxyphenyl)ethyl)amino)-5,8-quinolinedione]
DNA gyrase-mediated double stranded DNA breaks / DNA nicking [11]: cause DNA nicking

O=C(O)CCNc1ccc(NCCC(=O)O)c2c1C(=O)c1ccccc1C2=O [Compound 173, 3-({4-[(2-carboxyethyl)amino]-9,10-dioxo-9,10-dihydroanthracen-1-yl}amino)propanoic acid]
DNA gyrase-mediated double stranded DNA breaks / DNA nicking [11]: cause DNA nicking

O=S(=O)(Cl)c1ccc(Oc2ccc(S(=O)(=O)Cl)cc2)cc1 [NSC212]
% inhibition (20 μM) ([4]; 20 μM, Table 6): 84.6%
IC50 [5]: > 200 µM
IC50 [6]: > 200 µM

Sc1cccc2c(S)cccc12 [NSC229]
% inhibition (20 μM) ([4]; 20 μM, Table 6): 99.3%
IC50 [5]: > 200 µM
IC50 [6]: > 200 µM

CNC(=O)[C@H]1O[C@@H](n2cnc3c(NCc4cccc(I)c4)ncnc32)[C@H](O)[C@@H]1O [IB-MECA]
inhibition of the ATPase activities of E. coli DNA gyrase [13]: inhibition of the ATPase activities
mode of inhibition (ATP competitive) [13]: ATP competitive inhibitors
inhibition of Mtb DNA gyrase activities [8]: did not inhibit

Cc1c(CCC(=O)O)c(=O)oc2c(C)c3occ(-c4ccc5ccccc5c4)c3cc12 [Compound 124]
MIC [1]: > 200 µM
MIC [2]: > 200 µM
activity against Mtb [4]: most active for Mtb
cytotoxicity [5]: no cytotoxicity evident
cytotoxicity [6]: no cytotoxicity evident
